Experimental findings from US10588910B2, “Pharmaceutical composition comprising epidithiodioxopiperazine compound or derivative thereof, or pharmaceutically acceptable salt thereof, for preventing or treating pulmonary hypertension” (priority 2016, dated 2020) are described below.

Several values for one entry are separate records, joined by “and”; a condition that tells them apart may be missing. Identical values can stand only once.

For this assay, the system named is rat models in which pulmonary arterial hypertension is induced by monocrotaline (MCT). Briefly: Monocrotaline-induced pulmonary arterial hypertension rat model: heart mass, RV/(LV+septum) ratio, pulmonary arterial wall thickness (H&E). It counts as in vivo, Male SD rats. As to conditions: for hypertrophy of the right ventricle and pulmonary artery intimal thickening: animals with pulmonary arterial hypertension induced by monocrotaline; for hypertrophy of the right ventricle and pulmonary artery intimal thickening / therapeutic effect on pulmonary arterial hypertension: summary statement; for Total mass (heart) / LV + Septum (mass), Average / RV (right ventricle mass), Average / RV/LV + Septum, Average / Total mass (heart), Average / LV + Septum (mass) / RV (right ventricle mass) / RV/LV + Septum: 3 weeks; for Total mass (heart) / LV + Septum (mass) / RV (right ventricle mass) / RV/LV + Septum: individual rats; for LV + Septum (mass), Average / RV (right ventricle mass), Average / RV/LV + Septum, Average / Total mass (heart), Average: group average. How it is done: Male SD rats weighing approximately 210 g were used as animal models. In order to induce pulmonary arterial hypertension, a single intraperitoneal injection of monocrotaline (MCT) at a dose of 60 mg/kg was carried out. Accordingly, the rat models in which pulmonary arterial hypertension is induced were maintained for 3 weeks while test drugs were administered or not administered, and then the rat models were sacrificed. Thereafter, the hearts were excised and analyzed.
Chaetocin (the compound of Formula 2), which is a representative epidithiodioxopiperazine compound, was administered as a test drug to the pulmonary arterial hypertension animal models prepared according to Preparation Example 1 above at each dose of 6 μg, 12 μg, and 30 μg every 3 days. Normal rats in which MCT is not administered were used as the control group; and rats in which pulmonary arterial hypertension is induced by administering only MCT were used as the MCT group. The control group and each experimental group consisted of 3 to 4 rats.
The hearts were excised as in Preparation Example 1, and the excised hearts were measured for their total mass. Thereafter, the right ventricle (RV) was separated and the masses of each of the right ventricle, left ventricle, and cardiac septum (LV+septum) were separately measured to calculate the ratio. The results of the measurement of each experimental animal, the normal rats (control group), the MCT group, and the experimental groups (chaetocin groups; MCT+(dose μg)) in which chaetocin is administered at each dose of 30 μg, 12 μg, and 6 μg are shown in order in Tables 1 to 5.
Further, the sizes of the excised entire hearts and separated right ventricles were visually observed (FIG. 1), and the thicknesses of the pulmonary arterial walls were measured by H&E staining (FIGS. 2 to 11). In addition, in order to visualize the difference in the heart and pulmonary artery according to the dose-dependent chaetocin administration after the pulmonary arterial hypertension induction in the pulmonary arterial hypertension model, the average values of the heart mass, the ratio of the right ventricle to the left ventricle, and the thickness of the pulmonary artery wall, which are calculated from the hearts excised from each animal model, are shown in FIGS. 12 to 14, respectively. […]

Setting [1] is: MCT rats, chaetocin 6 μg every 3 days.
Where [2] appears, read: MCT rats, chaetocin 12 μg every 3 days.
Setting [3] is: MCT rats, chaetocin 30 μg every 3 days.

Take `CN1C(=O)C2SSC1C(=O)N2C` [5,7-Dimethyl-2,3-dithia-5,7-diazabicyclo[2.2.2]octane-6,8-dione]: the “hypertrophy of the right ventricle and pulmonary artery intimal thickening” value was “reduced to a level similar to normal”; the “therapeutic effect on pulmonary arterial hypertension” value was “excellent therapeutic effect”.
As for `CN1C(=O)C23CC4(C56CC78SSC(CO)(C(=O)N7C5Nc5ccccc56)N(C)C8=O)c5ccccc5NC4N2C(=O)C1(CO)SS3` (stereo not shown) [chaetocin], the “hypertrophy of the right ventricle and pulmonary artery intimal thickening” value is reported as “reduced to a level similar to normal”; the “therapeutic effect on pulmonary arterial hypertension” value is on record as “excellent therapeutic effect”. For the same compound, the “Total mass (heart)” value (MCT 60 mg/kg i.p. rats, chaetocin 30 μg every 3 days) was 1185 mg and 865 mg and 1135 mg and 1258 mg. Under setting [1], the “LV + Septum (mass), Average” value is 718.3 mg; the “RV (right ventricle mass), Average” value worked out at 190.0 mg; the “RV/LV + Septum, Average” value was 0.26; the “Total mass (heart), Average” value was determined as 908.3 mg. Moreover, under setting [1], the “LV + Septum (mass)” value was 732 mg and 681 mg and 742 mg; the “RV (right ventricle mass)” value is 190 mg and 175 mg and 205 mg; the “RV/LV + Septum” value was 0.26 (2×) and 0.28; the “Total mass (heart)” value is 922 mg and 856 mg and 947 mg. Besides, under setting [2], the “LV + Septum (mass), Average” value is 935.7 mg; the “RV (right ventricle mass), Average” value is given as 259.0 mg; the “RV/LV + Septum, Average” value is 0.28; the “Total mass (heart), Average” value came to 1194.7 mg. In addition, under setting [2], the “LV + Septum (mass)” value is 913 mg and 968 mg and 926 mg; the “RV (right ventricle mass)” value was 261 mg and 295 mg and 221 mg; the “RV/LV + Septum” value was 0.29 and 0.30 and 0.24; the “Total mass (heart)” value is 1174 mg and 1263 mg and 1147 mg. Under setting [3], the “LV + Septum (mass), Average” value is 870.8 mg; the “RV (right ventricle mass), Average” value was determined as 240.0 mg; the “RV/LV + Septum, Average” value was 0.3; the “Total mass (heart), Average” value is on record as 1110.8 mg. In addition, under setting [3], the “LV + Septum (mass)” value was 921 mg and 689 mg and 874 mg and 999 mg; the “RV (right ventricle mass)” value is 264 mg and 176 mg and 261 mg and 259 mg; the “RV/LV + Septum” value is 0.29 and 0.26 (2×) and 0.30.
